Assay results from US9447157B2, “Nitration shielding peptides and methods of use thereof” (Augusta University Research Institute, Inc., priority 2013, dated 2016).

What was measured:
HLMVEC [1] = assay: Gaps formation between cells (ZO-1 immunofluorescence) in HLMVEC; format: cell-based, human; conditions: peptide 100 ng/ml, LPS 1 EU/ml
Protocol: HLMVEC were grown on gelatin-coated coverslips and exposed to LPS in the presence or absence of the NipR1 peptides. The cells were permeabilized and blocked for 1 h at 25° C. in 5% BSA blocking buffer. A primary antibody against ZO-1 (Invitrogen, 1:100 dilution) was added. Plates were incubated overnight at 4° C. then a secondary antibody (AlexaFluor) was added for 2 h. Slides were examined with Zeiss immunofluorescence microscope Axio Observer D1. The gaps between the cells were calculated using Zeiss Axio Observer software.

[2] = system: human lung microvascular endothelial cells (HLMVEC); assay: Endothelial monolayer resistance (ECIS, TER) in LPS-challenged HLMVEC; format: cell-based; conditions: HLMVEC, peptide 100 ng/ml 30 min, then LPS 1 EU/ml
Protocol: The electrical resistance of the endothelial cell monolayer was measured with the electrical cell impedance sensor (ECIS) technique. In this system, the cells are cultured on gold plated electrodes. The change in resistance across the monolayer is measured through an amplifier attached to the arrays. Each study was performed when the resistance reached a plateau. The data was normalized to the initial voltage and plotted as a normalized resistance.
To examine if protein nitration by peroxynitrite is a contributing factor in endothelial barrier disruption in response to LPS, transendothelial resistance (TER) was measured in HLMVEC in the presence or absence of the peroxynitrite scavenger, MnTmPyp. HLMVEC were challenged with LPS (1 EU/ml) in the presence or absence of the peroxynitrite scavenger, MnTMPyP (25 μM).
To evaluate the role played by NOS in the barrier dysfunction, HLMVEC were exposed to LPS in the presence or absence of ETU (a non-specific NOS inhibitor) or 1400W (to inhibit iNOS). HLMVEC were challenged with LPS (1 EU/ml) in the presence or absence of the general NOS inhibitor, ETU (200 μM) or the iNOS specific inhibitor, 1400W (100 μM). The LPS-mediated decrease in TER was attenuated in the presence of ETU, but not 1400W (FIG. 1B). The important role of eNOS was then confirmed using a siRNA approach. HLMVEC were transiently transfected with a siRNA against eNOS or a scrambled control siRNA. After 48 h, there was a significant knockdown of eNOS protein levels (50%), as determined by Western blotting. Reducing eNOS protein levels preserved HLMVEC barrier function when challenged with LPS (FIG. 1C).

HLMVEC [3] = assay: Total protein nitration (3-NT/β-actin) in LPS-treated HLMVEC; format: cell-based, human; conditions: peptide 100 ng/ml 30 min, then LPS 1 EU/ml
From the text: Cell extracts were separated on 4-20% gels and electrophoretically transferred to PVDF membrane (Bio-Rad), then blocked with 5% nonfat dry milk in Tris-buffered saline. The membranes were probed with antibodies to RhoA (Cell Signaling), eNOS (BD), iNOS (Cell Signaling), or 3-Nitrotyrosine (Calbiochem). Reactive bands were visualized using chemi-luminescence (Pierce) on a Kodak 440CF image station. Band intensity was quantified using Kodak 1D image processing software. Protein loading was normalized by re-probing with mouse anti-β-actin.

LPS treated mice = assay: Mouse model of ALI induced by intra-tracheal LPS: BALF, weight, histopathology, MPO, lung mechanics, cytokines; format: in vivo
Protocol: The Committee on Animal Research at Georgia Regents University approved all animal protocols and procedures. Stock solutions of Escherichia coli LPS (0111:B4) were prepared in saline. […] Mice were examined 24 h after LPS treatment. At the end of the treatment lungs were flushed with 3 ml of ice-cold PBS (5 mM EDTA), excised, dipped in saline and blotted dry. A portion of the lung was quickly snap-frozen in liquid nitrogen, crushed to powder in a pre-chilled mortar and stored at −80° C. The remaining lung tissue was stored at −80° C.
Isolation of Bronchoalveolar Lavage Fluid (BALF) BALF was obtained by instilling and withdrawing 1 mL of PBS via a tracheal cannula. Part of the solution was used to determine protein levels in the BALF. In addition, cells were pelleted at 2,500 g for 10 min and resuspended in water for 15 sec to lyse red blood cells. Leukocytes were resuspended in 1 ml PBS, and total cell count determined using a haemocytometer.
Mice were anesthetized with pentobarbital (90 mg/kg, i.p.), tracheostomized with a metal 1.2 mm (internal diameter) cannula and connected to a Flexi Vent (Scireq Inc) ventilator. Ventilation was initiated at a tidal volume of 10 ml/kg and a rate of 150/min. A TLC maneuver was performed, followed by 15 sec later, by a sinusoidal 1 Hz oscillation. Subsequently, an 8 sec forced oscillatory signal (0.5-19.6 Hz) was applied, the mechanical input impedance of the respiratory system was calculated, and a model containing a constant phase tissue compartment was fit to input impedance in order to evaluate tissue elastance. Dynamic pressure-volume maneuvers were performed by step-wise increasing the airway pressure to 30 cm H2O and then reversing the process.
Lungs were inflated with 10% formalin under 15 cm H2O pressure and immersed in the same solution before tissue processing into paraffin embedded blocks and 4 μm sections were then cut stained with H&E. Histopathological assessment was conducted by two researchers who were masked to treatment group. H&E stained sections were scored for the presence of neutrophil in the alveolar space, neutrophils in the interstitial space, the existence of hyaline membranes, proteinaceous debris filling the airspaces and alveolar septal thickening as described previously (Matute-Bello, et al., Am. J. Respir. Cell Mol. Biol. 44, 725-738 (2011)).
Sections (5 μm) were cut from paraffin blocks and mounted on treated slides (Superfrost+). Slides were air dried overnight, placed in a 60° C. oven for 30 min, deparaffinized in xylene and run through graded alcohol to distilled water. Endogenous peroxidase was quenched with 0.3% H2O2 for 5 min, followed by two rinses with distilled water. Slides were pretreated with Target pH 6, (Dako), rinsed in distilled water, incubated in Power Block (Biogenex), rinsed in distilled water, placed in PBS for 5 min, incubated with primary antimyeloperoxidase (Cappel, 1:2000 dilution) for 30 min at 25° C. After two rinses in PBS, slides were incubated with a peroxidase-labeled polymer conjugated to goat anti-rabbit secondary IgG (Envision+, Dako) for 30 min and rinsed in PBS. Bound antibody was detected with the DAB+ substrate kit, (Dako). Hematoxylin was used as a counter-stain. MPO-stained slides were then evaluated by scoring (0-4) for the presence of neutrophils within the alveolar walls.
Analytes (pg/mL) were assessed with the MCYTOMAG70K assay (EMD Millipore) as previously described (Lucas, R., et al., Proc. Natl. Acad. Sci. USA 109, 2084-2089 (2012)).
Mice were used to perform additional physiological, biochemical and morphological studies to evaluate the efficacy of the NipR1 peptide in attenuating symptoms of ALI. […] After 24 h, mice were anesthetized and BALF was collected. Measurements of lung mechanics were also carried out.

RhoA [4] = target: T1, RhoA (Mus musculus, UniProt Q9QUI0); assay: RhoA activity, nitration and protein in lungs of LPS treated mice; format: in vivo
T1 construct: from tissue; host or cells: mouse lung (male C57Bl/6)
Protocol: The Committee on Animal Research at Georgia Regents University approved all animal protocols and procedures. Stock solutions of Escherichia coli LPS (0111:B4) were prepared in saline. […] Mice were examined 24 h after LPS treatment. At the end of the treatment lungs were flushed with 3 ml of ice-cold PBS (5 mM EDTA), excised, dipped in saline and blotted dry. A portion of the lung was quickly snap-frozen in liquid nitrogen, crushed to powder in a pre-chilled mortar and stored at -80° C. The remaining lung tissue was stored at -80° C. […] After 24 h, mice were sacrificed and lung tissue was obtained to determine RhoA activity and RhoA nitration, LPS induced RhoA activation in the mouse lung as in HLMVEC (FIG. 7A). […] Total RhoA protein levels and basal RhoA nitration were measured. […] Likewise, basal RhoA nitration levels (FIG. 7D) were unchanged.

RhoA [5] = target: T2, RhoA (Homo sapiens, UniProt P61586, Y34F); assay: Stopped-flow kinetic analysis of mant-GDP/mant-GTP binding to RhoA; conditions: stop-flow analysis, purified Y34F RhoA
T2 construct: polyHis (6His); made in house; host or cells: Escherichia coli BL21
Protocol: RhoA was treated with authentic peroxynitrite (500 μM, 30 min) to induce tyrosine nitration in buffered solution. For kinetic analyses, 2 μM of either mart-GTP or -GDP was mixed with RhoA (0.1 μM) in a stopped-flow instrument (SX-20, […]). Increases in fluorescent intensity mant-nucleotide binding to RhoA were then measured using excitation 350 nm and cutoff filter 395 nm for 0.2-1 second. Acquired kinetic curves for 3-5 experiments were averaged and fitted using the Pro-kineticist software to determine observed binding constants.
To test the validity of the MD data kinetic studies were performed. His-tagged human RhoA construct was expressed in the Escherichia con BL21 strain. First, the bacterial lysate was purified by 6His-tag affinity on a Ni-NTA column. Second, the proteins in the elution fraction from the affinity purification were separated by size-exclusion chromatography (FIG. 11). The fraction containing RhoA was identified both by Coomassie blue staining and Western blot analysis. The recombinant purified RhoA was subjected to rapid flow kinetics to evaluate GDP and GTP binding using fluorescently labeled guanine nucleotides. Peroxynitrite decreases GDP binding to purified RhoA. Human recombinant RhoA was exposed to authentic peroxynitrite (100 μM, 30 min) on ice. […]

[6] = peptide i.p. 0.1 mg/kg 6 h prior to i.t. LPS 2 mg/kg, 24 h

T1 sequence (Q9QUI0 whole entry): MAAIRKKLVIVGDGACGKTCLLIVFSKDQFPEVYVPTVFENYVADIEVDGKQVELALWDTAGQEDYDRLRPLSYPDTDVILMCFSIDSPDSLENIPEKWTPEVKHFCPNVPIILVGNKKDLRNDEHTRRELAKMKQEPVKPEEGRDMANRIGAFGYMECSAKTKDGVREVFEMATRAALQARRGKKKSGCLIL
T2 sequence (P61586 whole entry Y34F): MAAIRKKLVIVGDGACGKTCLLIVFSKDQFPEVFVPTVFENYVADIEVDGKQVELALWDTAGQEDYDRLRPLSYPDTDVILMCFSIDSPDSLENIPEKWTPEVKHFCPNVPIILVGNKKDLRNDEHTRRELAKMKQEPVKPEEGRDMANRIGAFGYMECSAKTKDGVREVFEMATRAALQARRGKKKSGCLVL

Substance | Cell-cell gaps after LPS (HLMVEC [1]) | Attenuation of LPS-mediated disruption of the HLMVEC barrier (preservation of TER) [2] | Increase in total protein nitration induced by LPS (HLMVEC [3]) | LPS-mediated induction of multiple pro-inflammatory cytokines and chemokines in BALF (LPS treated mice; LPS + NipR1 vs LPS, MCYTOMAG-70K assay) | Attenuation of LPS induced increase in MPO staining in the alveolar space (LPS treated mice; [6]) | Attenuation of LPS-induced increase in total white blood cell counts in BALF (LPS treated mice; [6]) | MPO activity in lung homogenates after LPS (LPS treated mice; [6]) | Prevention of LPS-induced reduction in lung elastance (dynamic pressure-volume relationships) (LPS treated mice; [6]) | Prevention of weight loss associated with LPS exposure (LPS treated mice; [6]) | Reduction of LPS-induced histopathological changes in the lungs (H&E) (LPS treated mice; [6]) | Inflammatory response induced by LPS (LPS treated mice; peptide i.p. prior to i.t. LPS) | Basal RhoA nitration levels in mouse lung (RhoA [4]; peptide alone, no LPS) | Attenuation of LPS-mediated increase in RhoA activity in the mouse lung (RhoA [4]; [6]) | Attenuation of LPS-mediated increase in RhoA nitration in the mouse lung (RhoA [4]; [6]) | Total RhoA protein levels in mouse lung (RhoA [4]; peptide i.p. 0.1 mg/kg, with or without LPS) | Binding of GTP (mant-GTP) to RhoA mutant (RhoA [5])
HRKKRRQRRRQFPVYVPTVF (SEQ ID NO:25) (Human immunodeficiency virus) [NipR1] | reduction | attenuated | unaffected | attenuated | attenuated | attenuated | attenuated | prevented | able to prevent | reduced | reduced | unchanged | attenuated | attenuated | Neither peptide nor LPS treatment altered | 
Y34FRhoA: purified RhoA mutant protein in which the tyrosine residue (Y) was replaced by phenylalanine |  |  |  |  |  |  |  |  |  |  |  |  |  |  |  | No binding
